According to ChEMBL document CHEMBL4270587, “Difuran-substituted quinoxalines as a novel class of PI3Kα H1047R mutant inhibitors: Synthesis, biological evaluation and structure-activity relationship” (Eur J Med Chem, 2018):

Key:
HCT-116 = test: cells; settings: Homo sapiens, HCT-116, 72 h
[1] = molecular target: PI3-kinase p110-alpha/p85-alpha (Homo sapiens, UniProt P42336); test: Inhibition of recombinant full length PI3K p110alpha/p85alpha (unknown origin) expressed in baculovirus infected sf9 cells using PIP2 as substrate preincubated for 10 mins followed by ATP addition and measured after 45 mins by HTRF assay
MCF7 = test: cells; settings: Homo sapiens, MCF7, 72 h
Description: Antiproliferative activity against human MCF7 cells after 72 hrs by CCK8 assay

[2] = molecular target: PI3-kinase p110-alpha/p85-alpha (Homo sapiens, UniProt P42336, H1047R); test: Inhibition of recombinant full length PI3K p85alpha/p110alpha H1047R mutant (unknown origin) expressed in baculovirus infected sf9 cells using PIP2 as substrate preincubated for 10 mins followed by ATP addition and measured after 45 mins by HTRF assay
[3] = Inhibition of mTORC1 (unknown origin); design: species or system Homo sapiens

Chain of PI3-kinase p110-alpha/p85-alpha (Homo sapiens, UniProt P42336) (P27986 whole entry): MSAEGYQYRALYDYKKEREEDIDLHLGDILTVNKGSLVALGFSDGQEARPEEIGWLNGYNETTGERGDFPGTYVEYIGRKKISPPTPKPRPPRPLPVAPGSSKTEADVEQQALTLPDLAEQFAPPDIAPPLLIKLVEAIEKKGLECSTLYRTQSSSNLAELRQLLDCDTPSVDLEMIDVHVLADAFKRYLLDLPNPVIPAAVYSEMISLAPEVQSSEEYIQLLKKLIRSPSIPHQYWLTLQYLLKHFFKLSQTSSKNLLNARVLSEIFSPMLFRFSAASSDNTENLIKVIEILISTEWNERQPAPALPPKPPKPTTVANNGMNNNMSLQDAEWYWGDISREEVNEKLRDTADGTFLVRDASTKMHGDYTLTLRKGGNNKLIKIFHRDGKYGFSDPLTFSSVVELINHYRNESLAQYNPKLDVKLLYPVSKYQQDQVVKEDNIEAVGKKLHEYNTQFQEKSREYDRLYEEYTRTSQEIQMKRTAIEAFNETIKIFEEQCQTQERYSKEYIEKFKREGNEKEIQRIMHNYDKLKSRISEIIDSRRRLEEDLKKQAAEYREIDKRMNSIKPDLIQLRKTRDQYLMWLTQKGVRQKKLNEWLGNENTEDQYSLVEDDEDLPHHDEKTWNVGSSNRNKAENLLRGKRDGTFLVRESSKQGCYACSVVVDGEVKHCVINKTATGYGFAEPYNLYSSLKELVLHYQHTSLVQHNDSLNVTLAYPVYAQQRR
Chain of PI3-kinase p110-alpha/p85-alpha (Homo sapiens, UniProt P42336) (P42336 whole entry): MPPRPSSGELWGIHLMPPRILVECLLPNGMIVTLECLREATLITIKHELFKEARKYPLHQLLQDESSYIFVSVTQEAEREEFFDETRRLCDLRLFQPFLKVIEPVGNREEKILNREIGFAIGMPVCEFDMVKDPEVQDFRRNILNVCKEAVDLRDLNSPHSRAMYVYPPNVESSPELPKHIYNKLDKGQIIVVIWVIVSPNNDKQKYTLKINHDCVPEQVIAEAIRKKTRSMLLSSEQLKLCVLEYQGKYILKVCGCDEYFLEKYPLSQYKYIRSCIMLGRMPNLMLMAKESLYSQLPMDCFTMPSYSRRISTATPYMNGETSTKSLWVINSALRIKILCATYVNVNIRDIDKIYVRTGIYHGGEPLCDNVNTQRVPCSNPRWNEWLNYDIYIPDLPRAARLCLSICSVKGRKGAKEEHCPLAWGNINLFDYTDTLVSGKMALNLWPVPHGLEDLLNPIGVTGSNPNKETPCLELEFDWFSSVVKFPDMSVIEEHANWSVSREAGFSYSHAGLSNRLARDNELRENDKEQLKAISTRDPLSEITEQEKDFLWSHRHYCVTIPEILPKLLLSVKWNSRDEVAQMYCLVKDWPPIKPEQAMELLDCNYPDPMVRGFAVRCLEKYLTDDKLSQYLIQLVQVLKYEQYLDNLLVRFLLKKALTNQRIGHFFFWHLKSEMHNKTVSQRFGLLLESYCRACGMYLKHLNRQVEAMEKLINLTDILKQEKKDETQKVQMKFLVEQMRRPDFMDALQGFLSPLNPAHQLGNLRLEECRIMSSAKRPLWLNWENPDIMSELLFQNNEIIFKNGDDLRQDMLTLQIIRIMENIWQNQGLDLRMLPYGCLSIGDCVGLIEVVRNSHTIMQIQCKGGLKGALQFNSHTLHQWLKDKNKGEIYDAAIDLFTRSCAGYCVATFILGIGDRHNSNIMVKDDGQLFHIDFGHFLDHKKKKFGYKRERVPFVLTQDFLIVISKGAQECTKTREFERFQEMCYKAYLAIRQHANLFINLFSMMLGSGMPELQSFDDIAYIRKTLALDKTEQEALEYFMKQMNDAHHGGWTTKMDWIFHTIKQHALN
Chain of PI3-kinase p110-alpha/p85-alpha (Homo sapiens, UniProt P42336, H1047R) (P42336 whole entry H1047R, looked up): as the sequence (P42336 whole entry) above, with H1047R counted along it

Row | EC50 [3] | SMILES | IC50 (HCT-116) | EC50 [1] | IC50 (MCF7) | EC50 [2]
1 | – | FC(F)(F)c1ccccc1-c1cc2nc(-c3ccco3)c(-c3ccco3)nc2cc1Br | 13.5 µM | 0.097 µM | 15.5 µM | 0.169 µM
2 | – | COc1ccccc1-c1ccc2nc(-c3ccco3)c(-c3ccco3)nc2c1 | > 50 µM | – | > 50 µM | 87.3 µM
3 | – | Clc1cc(Cl)c2nc(-c3ccco3)c(-c3ccco3)nc2c1 | > 50 µM | 54.6 µM | > 50 µM | 76 µM
4 | – | Fc1cccc(-c2cc3nc(-c4ccco4)c(-c4ccco4)nc3cc2Br)c1 | 43.1 µM | – | 19.6 µM | 2.9 µM
5 | – | c1csc(-c2nc3ccccc3nc2-c2cccs2)c1 | > 50 µM | – | > 50 µM | > 100 µM
6 | – | Clc1ccc2nc(-c3ccco3)c(-c3ccco3)nc2c1 | > 50 µM | – | > 50 µM | 18.1 µM
7 | – | Fc1cccc(-c2cc3nc(-c4ccco4)c(-c4ccco4)nc3cc2Br)c1F | > 50 µM | – | > 50 µM | 7.3 µM
8 | – | Clc1ccccc1-c1cc2nc(-c3ccco3)c(-c3ccco3)nc2cc1Br | > 50 µM | – | > 50 µM | > 100 µM
9 | – | Brc1cc2nc(-c3ccco3)c(-c3ccco3)nc2cc1-c1ccccc1 | > 50 µM | – | > 50 µM | 20.5 µM
10 | – | Brc1cc2nc(-c3ccco3)c(-c3ccco3)nc2cc1-c1cc2ccccc2s1 | 38.5 µM | – | 40.9 µM | 1.2 µM
11 | – | COc1ccccc1-c1cc2nc(-c3ccco3)c(-c3ccco3)nc2cc1Br | > 50 µM | – | > 50 µM | > 100 µM
12 | – | FC(F)(F)c1ccccc1-c1ccc2nc(-c3ccco3)c(-c3ccco3)nc2c1 | 45.3 µM | 12.8 µM | > 50 µM | 11.8 µM
13 | – | COc1ccc(-c2cc3nc(-c4ccco4)c(-c4ccco4)nc3cc2Br)cc1 | > 50 µM | – | > 50 µM | > 100 µM
14 | – | Oc1ccccc1-c1ccc2nc(-c3ccco3)c(-c3ccco3)nc2c1 | > 50 µM | – | > 50 µM | 43.5 µM
15 | – | Brc1cc2nc(-c3ccco3)c(-c3ccco3)nc2cc1Br | > 50 µM | – | > 50 µM | 39.3 µM
16 | – | c1ccc(-c2nc3ccccc3nc2-c2ccccc2)cc1 | > 50 µM | – | > 50 µM | > 100 µM
17 | – | Oc1ccccc1-c1cc2nc(-c3ccco3)c(-c3ccco3)nc2cc1Br | > 50 µM | – | > 50 µM | > 100 µM
18 | – | Brc1ccc2nc(-c3ccco3)c(-c3ccco3)nc2c1 | > 50 µM | 27.6 µM | > 50 µM | 33.5 µM
19 | – | COc1cc(OC)cc(-c2cc3nc(-c4ccco4)c(-c4ccco4)nc3cc2Br)c1 | > 50 µM | – | > 50 µM | > 100 µM

Row | EC50 [3] | SMILES | IC50 (HCT-116) | EC50 [1] | IC50 (MCF7) | EC50 [2]
20 | – | Clc1ccc2nc(-c3ccco3)c(-c3ccco3)nc2c1Cl | > 50 µM | – | > 50 µM | > 100 µM
21 | – | c1ccc(-c2ccc3nc(-c4ccco4)c(-c4ccco4)nc3c2)cc1 | > 50 µM | 12.4 µM | > 50 µM | 47.8 µM
22 | – | c1ccc2nc(N3CCOCC3)c(N3CCOCC3)nc2c1 | > 50 µM | – | > 50 µM | > 100 µM
23 | – | FC(F)(F)c1ccc(-c2cc3nc(-c4ccco4)c(-c4ccco4)nc3cc2Br)cc1 | 14.9 µM | – | 25.2 µM | 0.516 µM
24 | – | Fc1ccc(-c2cc3nc(-c4ccco4)c(-c4ccco4)nc3cc2Br)cc1 | 38.1 µM | – | 35.1 µM | 1.9 µM
25 | – | Brc1cc2nc(-c3ccco3)c(-c3ccco3)nc2cc1-c1cc2ccccc2o1 | > 50 µM | – | > 50 µM | > 100 µM
26 | – | CC(C)(C)OC(=O)n1cccc1-c1cc2nc(-c3ccco3)c(-c3ccco3)nc2cc1Br | > 50 µM | – | > 50 µM | 18.6 µM
27 | – | c1coc(-c2nc3ccc(-c4cc5ccccc5s4)cc3nc2-c2ccco2)c1 | > 50 µM | – | > 50 µM | > 100 µM
28 | – | Fc1ccc2nc(-c3ccco3)c(-c3ccco3)nc2c1 | > 50 µM | – | > 50 µM | > 100 µM
29 | – | Brc1cc2nc(-c3ccco3)c(-c3ccco3)nc2cc1-c1cncnc1 | > 50 µM | – | > 50 µM | 13.5 µM
30 | 0.079 µM | Cn1c(=O)n(-c2ccc(C(C)(C)C#N)cc2)c2c3cc(-c4cnc5ccccc5c4)ccc3ncc21 [DACTOLISIB] | – | – | – | –
31 | – | Brc1ccccc1-c1cc2nc(-c3ccco3)c(-c3ccco3)nc2cc1Br | > 50 µM | – | > 50 µM | > 100 µM
32 | – | FC(F)(F)c1ccc2nc(-c3ccco3)c(-c3ccco3)nc2c1 | > 50 µM | – | > 50 µM | > 100 µM
33 | – | Fc1ccc(-c2cc3nc(-c4ccco4)c(-c4ccco4)nc3cc2Br)c(F)c1 | 16.6 µM | – | 27.9 µM | 3.2 µM
34 | – | Brc1cc2nc(-c3ccco3)c(-c3ccco3)nc2cc1-c1ccncc1 | 45.7 µM | – | > 50 µM | 10.8 µM
35 | – | Cc1ccc2nc(-c3ccco3)c(-c3ccco3)nc2c1 | > 50 µM | – | > 50 µM | > 100 µM
36 | – | c1coc(-c2nc3ccc(-c4cc5ccccc5o4)cc3nc2-c2ccco2)c1 | > 50 µM | – | > 50 µM | > 100 µM
37 | – | c1coc(-c2nc3ccc(-c4ccncc4)cc3nc2-c2ccco2)c1 | > 50 µM | – | > 50 µM | > 100 µM
38 | – | Fc1ccccc1-c1ccc2nc(-c3ccco3)c(-c3ccco3)nc2c1 | 39.7 µM | – | > 50 µM | 12.7 µM
